Measured values taken from patent US20080021026A1, “BENZOTHIOPHENE INHIBITORS OF RHO KINASE” (priority 2006, published 2008).

Legend:
[1] = biological target: T1, recombinant N-terminal GST-tagged human Rho kinase 1 (ROCK1, amino acids 1-535) (Homo sapiens, UniProt Q13464); assay: In vitro Rho kinase assay (luciferase-based ATP consumption), ROCK1; assay type: biochemical; settings: recombinant GST-tagged human ROCK1, luciferase-based ATP consumption; read-out: ROCK1 IC50
T1 construct: ROCK1, amino acids 1-535; purchased Invitrogen Inc. PV-3691
T1 sequence (Q13464 1-535): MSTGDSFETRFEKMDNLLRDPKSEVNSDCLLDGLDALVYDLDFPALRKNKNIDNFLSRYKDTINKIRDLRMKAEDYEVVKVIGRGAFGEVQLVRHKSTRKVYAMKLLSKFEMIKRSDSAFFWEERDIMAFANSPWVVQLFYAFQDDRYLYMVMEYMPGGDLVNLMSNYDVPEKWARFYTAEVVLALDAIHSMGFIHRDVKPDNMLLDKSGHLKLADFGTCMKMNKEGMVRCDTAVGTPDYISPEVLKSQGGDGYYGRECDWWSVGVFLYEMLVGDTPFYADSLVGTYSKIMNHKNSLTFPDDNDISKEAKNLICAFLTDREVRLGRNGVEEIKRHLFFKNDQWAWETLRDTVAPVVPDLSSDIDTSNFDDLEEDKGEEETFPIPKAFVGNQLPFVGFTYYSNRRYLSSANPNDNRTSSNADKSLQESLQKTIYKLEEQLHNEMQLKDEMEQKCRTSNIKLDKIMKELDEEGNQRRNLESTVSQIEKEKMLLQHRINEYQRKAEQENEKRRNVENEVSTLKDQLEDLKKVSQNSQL
Outline: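 GST-ROCK1 (aa 1-535) at 0.82 μg/ml with 100 μg/ml S6 peptide and 3 µM ATP in Tris pH 7.5 buffer with MgCl2, CaCl2, EGTA, BSA; compound added after reaction start, 2 h at 30 °C. Remaining ATP read by luciferase luminescence; efficacy as percent of H-1152P positive control.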

[2] = biological target: T2, recombinant N-terminal GST-tagged human Rho kinase 2 (ROCK2, amino acids 1-552) (Homo sapiens, UniProt O75116); assay: In vitro Rho kinase assay (luciferase-based ATP consumption), ROCK2; assay type: biochemical; settings: recombinant GST-tagged human ROCK2, luciferase-based ATP consumption; read-out: ROCK2 IC50
T2 construct: ROCK2, amino acids 1-552; purchased Invitrogen Inc. PV3759
T2 sequence (O75116 1-552): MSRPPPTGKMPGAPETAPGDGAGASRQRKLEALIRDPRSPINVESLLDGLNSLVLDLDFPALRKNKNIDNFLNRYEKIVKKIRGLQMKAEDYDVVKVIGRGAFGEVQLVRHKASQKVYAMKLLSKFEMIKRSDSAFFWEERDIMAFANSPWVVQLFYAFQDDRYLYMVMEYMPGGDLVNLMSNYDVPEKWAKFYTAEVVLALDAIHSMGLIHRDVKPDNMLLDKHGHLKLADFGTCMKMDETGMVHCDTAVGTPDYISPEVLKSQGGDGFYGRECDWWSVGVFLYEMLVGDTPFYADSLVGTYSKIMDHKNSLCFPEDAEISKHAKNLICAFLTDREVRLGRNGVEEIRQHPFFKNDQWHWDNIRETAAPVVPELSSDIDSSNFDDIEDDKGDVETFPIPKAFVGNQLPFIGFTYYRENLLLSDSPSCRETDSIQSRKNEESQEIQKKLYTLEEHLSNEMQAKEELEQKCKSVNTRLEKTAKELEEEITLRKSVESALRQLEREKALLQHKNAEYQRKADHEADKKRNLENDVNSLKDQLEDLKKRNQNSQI
Outline: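 GST-ROCK2 (aa 1-552, 0.82 μg/ml) with 100 μg/ml S6 peptide and 3 µM ATP in Tris pH 7.5 buffer with MgCl2/CaCl2/EGTA/BSA, compound added just after reaction start, 2 h at 30 °C. Remaining ATP read by luciferase luminescence. Efficacy expressed as percentage of H-1152P positive control.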

| IC50 [1] [µM] | IC50 [2] [µM] | Structure (SMILES) |
| --- | --- | --- |
| < 5 | < 5 | Cc1c(-c2ccnc(N)n2)sc2ccc(Nc3ccccn3)cc12 [Example 64, 4-(3-Methyl-5-(pyridin-2-ylamino)benzo[b]thiophen-2-yl)pyrimidin-2-amine] |
| < 5 | < 5 | Cc1c(-c2ccnc(N)n2)sc2ccc(Nc3cccnc3)cc12 [Example 65, 4-(3-Methyl-5-(pyridin-3-ylamino)benzo[b]thiophen-2-yl)pyrimidin-2-amine] |
| < 5 | < 5 | Cc1c(-c2ccnc(N)n2)sc2ccc(Nc3ccncc3)cc12 [Example 66, 4-(3-Methyl-5-(pyridin-4-ylamino)benzo[b]thiophen-2-yl)pyrimidin-2-amine] |
| < 5 | < 5 | COc1cncc(Nc2ccc3sc(-c4ccnc(N)n4)c(C)c3c2)c1 [Example 67, 4-(5-(5-Methoxypyridin-3-ylamino)-3-methylbenzo[b]thiophen-2-yl)pyrimidin-2-amine] |
| < 5 | < 5 | Cc1c(-c2ccnc(N)n2)sc2ccc(Nc3cncc(O)c3)cc12 [Example 68, 5-(2-(2-Aminopyrimidin-4-yl)-3-methylbenzo[b]thiophen-5-ylamino)pyridin-3-ol] |
| < 5 | < 5 | Cc1c(-c2ccnc(N)n2)sc2ccc(Nc3ccccc3)cc12 [Example 69, 4-(3-Methyl-5-(phenylamino)benzo[b]thiophen-2-yl)pyrimidin-2-amine] |
| < 5 | < 5 | Cc1c(-c2ccnc(N)n2)sc2ccc(Nc3ccc4c(c3)OCO4)cc12 [Example 70, 4-(5-(Benzo[d][1,3]dioxol-5-ylamino)-3-methylbenzo[b]thiophen-2-yl)pyrimidin-2-amine] |
| < 5 | < 5 | Cc1c(-c2ccnc(N)n2)sc2ccc(Nc3cncc(C(=O)O)c3)cc12 [Example 71, 5-(2-(2-Aminopyrimidin-4-yl)-3-methylbenzo[b]thiophen-5-ylamino)nicotinic acid] |
| < 5 | < 5 | Cc1c(-c2ccnc(N)n2)sc2ccc(N)cc12 [Example 72, 4-(5-Amino-3-methylbenzo[b]thiophen-2-yl)pyrimidin-2-amine] |
| > 5 | > 5 | COc1cc(C(=O)Nc2ccc3sc(-c4ccnc(N)n4)c(C)c3c2)cc(OC)c1OC [Example 73, N-(2-(2-Aminopyrimidin-4-yl)-3-methylbenzo[b]thiophen-5-yl)-3,4,5-trimethoxy benzamide] |
| < 5 | < 5 | COc1nccc(Nc2ccc3sc(-c4ccnc(N)n4)c(C)c3c2)n1 [Example 74, 4-(5-(2-Methoxypyrimidin-4-ylamino)-3-methylbenzo[b]thiophen-2-yl)pyrimidin-2-amine] |
| < 5 | < 5 | Cc1c(-c2ccnc(N)n2)sc2ccc(Nc3ccnc(O)n3)cc12 [Example 75, 4-(2-(2-Aminopyrimidin-4-yl)-3-methylbenzo[b]thiophen-5-ylamino)pyrimidin-2-ol] |
| < 5 | < 5 | CNc1nccc(Nc2ccc3sc(-c4ccnc(N)n4)c(C)c3c2)n1 [Example 76, N^4-(2-(2-Aminopyrimidin-4-yl)-3-methylbenzo[b]thiophen-5-yl)-N^2-methyl pyrimidine-2,4-diamine] |
| < 5 | < 5 | CCN(CC)CCNc1nccc(Nc2ccc3sc(-c4ccnc(N)n4)c(C)c3c2)n1 [Example 77, N^4-(2-(2-Aminopyrimidin-4-yl)-3-methylbenzo[b]thiophen-5-yl)-N^2-(2-(diethylamino)ethyl)pyrimidine-2,4-diamine] |
| < 5 | < 5 | COc1cccc(N(C)c2ccc3sc(-c4ccnc(N)n4)c(C)c3c2)c1 [Example 78, 4-(5-((3-Methoxyphenyl)(methyl)amino)-3-methylbenzo[b]thiophen-2-yl)pyrimidin-2-amine] |
| < 5 | < 5 | Cc1c(-c2ccnc(N)n2)sc2ccc(Oc3ccccc3)cc12 [Example 79, 4-(3-Methyl-5-phenoxybenzo[b]thiophen-2-yl)pyrimidin-2-amine] |
| < 5 | < 5 | Cc1c(-c2ccnc(N)n2)sc2ccc(Oc3cccc([N+](=O)[O-])c3)cc12 [Example 80, 4-(3-Methyl-5-(3-nitrophenoxy)benzo[b]thiophen-2-yl)pyrimidin-2-amine] |
| < 5 | < 5 | COc1cccc(Oc2ccc3sc(-c4ccnc(N)n4)c(C)c3c2)c1 [Example 81, 4-(5-(3-Methoxyphenoxy)-3-methylbenzo[b]thiophen-2-yl)pyrimidin-2-amine] |
| < 5 | < 5 | COc1cccc(Sc2ccc3sc(-c4ccnc(N)n4)c(C)c3c2)c1 [Example 83, 4-(5-(3-Methoxyphenylthio)-3-methylbenzo[b]thiophen-2-yl)pyrimidin-2-amine] |
| < 5 | < 5 | Cc1c(-c2ccnc(N)n2)sc2ccc(Sc3cccc(O)c3)cc12 [Example 84, 3-(2-(2-Aminopyrimidin-4-yl)-3-methylbenzo[b]thiophen-5-ylthio)phenol] |

| IC50 [1] [µM] | IC50 [2] [µM] | Structure (SMILES) |
| --- | --- | --- |
| < 5 | < 5 | COC(=O)c1cccc(Sc2ccc3sc(-c4ccnc(N)n4)c(C)c3c2)c1 [Example 85, Methyl 3-(2-(2-aminopyrimidin-4-yl)-3-methylbenzo[b]thiophen-5-ylthio)benzoate] |
| < 5 | < 5 | Cc1c(-c2ccnc(N)n2)sc2ccc(Sc3cccc(C(=O)O)c3)cc12 [Example 86, 3-(2-(2-Aminopyrimidin-4-yl)-3-methylbenzo[b]thiophen-5-ylthio)benzoic acid] |
| > 5 | < 5 | Cc1c(-c2ccnc(N)n2)sc2ccc(C(=O)c3ccccc3)cc12 [Example 87, (2-(2-Aminopyrimidin-4-yl)-3-methylbenzo[b]thiophen-5-yl)(phenyl)methanone] |
| < 5 | > 5 | Cc1c(-c2ccnc(N)n2)sc2ccc(-c3ccccc3)cc12 [Example 88, 4-(3-Methyl-5-phenylbenzo[b]thiophen-2-yl)pyrimidin-2-amine] |
| > 5 | > 5 | COc1cccc(C#Cc2ccc3sc(-c4ccnc(N)n4)c(C)c3c2)c1 [Example 89, 4-(5-((3-Methoxyphenyl)ethynyl)-3-methylbenzo[b]thiophen-2-yl)pyrimidin-2-amine] |
| > 5 | > 5 | COc1cccc(CCc2ccc3sc(-c4ccnc(N)n4)c(C)c3c2)c1 [Example 90, 4-(5-(3-Methoxyphenethyl)-3-methylbenzo[b]thiophen-2-yl)pyrimidin-2-amine] |
| < 5 | < 5 | Cc1c(-c2ccnc(N)n2)oc2ccc(Br)cc12 [Example 91, 4-(5-Bromo-3-methylbenzofuran-2-yl)pyrimidin-2-amine] |
| < 5 | < 5 | Cc1c(-c2ccnc(N)n2)oc2ccc(Cc3cccc(O)c3)cc12 [Example 92, 3-((2-(2-Aminopyrimidin-4-yl)-3-methylbenzofuran-5-yl)methyl)phenol] |
| < 5 | < 5 | COc1cc(NC(=O)c2sc3nc(-c4ccncc4)ccc3c2N)cc(OC)c1OC [Example 94] |
| > 5 | > 5 | CC(=O)NCc1ccc2sc(-c3ccnc(N)n3)c(C)c2c1 [Example 95, CC(═O)NCc1ccc2sc(c(C)c2c1)-c3ccnc(N)n3] |
| > 5 | > 5 | Cc1c(-c2ccnc(N)n2)sc2ccc(CNC(=O)C=O)cc12 [Example 96, Cc1c(sc2ccc(CNC(═O)C═O)cc12)-c3ccnc(N)n3] |
| < 5 | < 5 | Cc1c(-c2ccnc(N)n2)sc2ccc(CNC(=O)CC#N)cc12 [Example 97, Cc1c(sc2ccc(CNC(═O)CC#N)cc12)-c3ccnc(N)n3] |
| > 5 | < 5 | Cc1c(-c2ccnc(N)n2)sc2ccc(CNC(=O)C(C)O)cc12 (centres unmarked) [Example 98, C[C](O)C(═O)NCc1ccc2sc(c(C)c2c1)-c3ccnc(N)n3] |
| < 5 | < 5 | CCC(=O)C(=O)NCc1ccc2sc(-c3ccnc(N)n3)c(C)c2c1 [Example 99, CCC(═O)C(═O)NCc1ccc2sc(c(C)c2c1)-c3ccnc(N)n3] |
| < 5 | < 5 | Cc1c(-c2ccnc(N)n2)sc2ccc(CNC(=O)C(C)(C)C)cc12 [Example 100, Cc1c(sc2ccc(CNC(═O)C(C)(C)C)cc12)-c3ccnc(N)n3] |
| < 5 | < 5 | Cc1c(-c2ccnc(N)n2)sc2ccc(CNC(=O)CC(C)C)cc12 [Example 101, CC(C)CC(═O)NCc1ccc2sc(c(C)c2c1)-c3ccnc(N)n3] |
| < 5 | < 5 | Cc1c(-c2ccnc(N)n2)sc2ccc(CNC(=O)c3cnc[nH]3)cc12 [Example 102, Cc1c(sc2ccc(CNC(═O)c3cnc[nH]3)cc12)-c4ccnc(N)n4] |
| < 5 | < 5 | Cc1c(-c2ccnc(N)n2)sc2ccc(CNC(=O)c3ncc[nH]3)cc12 [Example 103, Cc1c(sc2ccc(CNC(═O)c3ncc[nH]3)cc12)-c4ccnc(N)n4] |
| < 5 | < 5 | Cc1c(-c2ccnc(N)n2)sc2ccc(CNC(=O)C3=CCCC3)cc12 [Example 104, Cc1c(sc2ccc(CNC(═O)C3═CCCC3)cc12)-c4ccnc(N)n4] |
| > 5 | < 5 | Cc1c(-c2ccnc(N)n2)sc2ccc(CNC(=O)C(F)(F)F)cc12 [Example 105, Cc1c(sc2ccc(CNC(═O)C(F)(F)F)cc12)-c3ccnc(N)n3] |
